The source of these data is patent publication US12630523B2, “Isoquinoline derivatives for use as antiviral and antitumour agents” (priority 2021, dated 2026).

Data set [1] relates to SARS-CoV-2 isolate BetaCov/Belgium/GHB-03021/2020. The experiment in a line: microbe, parasite or virus in culture. Type of data set: cell-based. Particulars: 1.25 μM (non-toxic compound concentration), n4; for inhibition at 1.25 µM: Severe acute respiratory syndrome coronavirus 2.
The test system of data set [2] is p38, JNK1, ERK1/2, PKC, or Src-like kinases. Particulars: cited from earlier work.
The test system of data set [3] is cell signaling molecules (4E-BP1, p70 S6 kinase, Akt, PTPN14, p53, PD-L1). The experiment in a line: Western blot of cell signaling molecules in CaSki cells. Particulars: CaSki, 6 h; order 10 μM VSP035, Torin 1, Torin 2, rapamycin, 5 μM VSP035, CGP 57380.
The target in another data set is Plk3 (Homo sapiens, UniProt Q9H4B4). To be noted: cited from earlier work.
Data set [4] in a line: Pharmacokinetics of VSP034 and VSP035 after oral administration of a liposomal formulation. The format is in vivo, female Sprague-Dawley rats. Particulars: for AUC(0-inf) / CL/F / Cmax / MRT inf / Tmax / Vd/F / half-life: female, Sprague-Dawley, rat, in vivo, po, 100 mg/kg; for AUC(0-inf): AUC0-inf; for MRT inf: MRT0-inf; for Vd/F: Vz/F. As for the experimental part:
The pharmacokinetic parameters of VSP034 and VSP035 encapsulated as liposomal formulation were assessed after the administration of a single 100 mg/kg dose by oral gavage to 6 female Sprague-Dawley rats weighting 250 grams (+25 g). The animals were randomized into two experimental groups (Groups 1 and 2), each composed of 3 rats. Rats belonging to group 1 were administered with VSP034 and rats belonging to group 2 were administered with VSP035. Blood was collected at baseline and 15 min, 30 min, 1, 2, 4, 6, 8, and 24 hours after the oral gavage. The rats were sacrificed 24 hours after the dosing. Blood was collected at each timepoint from the caudal vein, with the exception of the last collection (24 hours), which was performed by intracardiac puncture at the moment of sacrifice under isoflurane anesthesia. The animals were weighted immediately before the dosing to assess the proper dose and carefully monitored during the experiment. They were kept in standard housing conditions, meeting the legal requirements for the correct housing of rodents for a period not exceeding the maximum experimental endpoints. Ad libitum access to water and food was allowed. […] Humane endpoints have not been reached. The pharmacokinetic analysis was performed using Microsoft Excel plug-in PK Solver. Pharmacokinetic parameters of two compounds are compared with the software GraphPad Prism ver. 8.0 by Student's t test for unpaired data. A p value <0.05 is considered statistically significant.
Analytical method: Compound analysis was performed following the bioanalytical method as in Test 13. In this study, carbamazepine was used as an internal standard.
Pharmacokinetic analysis: A pharmacokinetic analysis of VSP034 and VSP035 was performed using the Excel plug-in 2.0 PK Solver. The results have been fitted according to a non-compartmental modelling following extravascular administration. Concentration-vs-time curves for VSP034 and VSP035.
The main pharmacokinetic parameters (half-life, t1/2; time to maximum plasma concentration, Tmax; maximum plasma concentration, Cmax, AUC Extrapolated to Infinity, AUC0-inf; mean residence time, MRT; Apparent Volume of Distribution During Terminal Phase, Vz/F; and apparent oral clearance, CL/F) were calculated from the coefficients and exponents of the best-fits by using standard formulae.

Data set [5] concerns CaSki (ATCC CRM-CRL-1550). In words: Monolayer assay using Sulphorhodamine B (SRB) staining, CaSki. Type of data set: cell-based. Particulars: Homo sapiens, Ca-Ski, read-out: EC50 mean [nM]. As for the experimental part:
Various cell culture cells grown as monolayers are harvested from exponential growing cultures after treatment with various OC compounds at different concentrations. For this depending on the cell line, 10.000 to 30.000 cells were plated in 96-well flat-bottom microtiter plates. After a 24 h recovery period to allow cells to resume exponential growth, supernatants are discarded and 100 μl of culture medium (eight control wells/plate) or culture medium with the test compound are added by a liquid handling robotic system (Microlab® Starlet, Hamilton) and treatment continued for 72 hrs. Compounds are applied at 9 concentrations and eight wells/concentration). At least three independent experiments are performed. For SRB staining, cells are fixed with SRB01 (Tab. 5) for 1 h at 4° C. (final concentration of TCA=10%) washed with a plate washer (Hydroflex, Tecan©) for five times with H2O; and stained with 100 μl of SRB02 at room temperature for 10 min following 4 washes in SRB03 and finally 100 μl of developer solution SRB04 for 5 minutes with shaking. Optical density is assessed using a plate-reader (Sunrise, Tecan©) at 540 nm.
Concentrations required for half maximal response of the compound for cell growth inhibition (EC50) is calculated by non-linear regression (log[conc. of inhibitor] versus response (% T/C)) using the analysis software GraphPad Prism®, Prism 5 for windows, version 5.01 (GraphPad Software Inc., CA).

In data set [6] the test system is patient derived SARS-2 Coronavirus (COVID19). In words: Inhibition of Sars-CoV2 replication by RNA qPCR analysis in Vero E6 cells. The format is cell-based, SARS-CoV-2. To be noted: 7.5 μM, supernatants 3 days after infection, n3. How it is done: Vero E6 cells were pre-incubated with the compounds at a concentration of 7.5 μM. The cells were infected with a patient derived SARS-2 Coronavirus (COVID19). Cellular supernatants were collected 3 days after infection and centrifuged at 2000 rpm for 5 min to remove detached cells. Viral RNAs were extracted using a MagNA Pure 24 system (Roche, Germany). SARS-CoV-2 RNA genomes were quantified with the TIB MOLBIOL LightMix Assay SARS-CoV-2 RdRP RTqPCR assay kit with RNA Process Control PCR Kit (Roche). The PCR reaction setup was performed using a BRAND LHS laboratory robot to ensure quality. The amplification was performed with a LightCycler 480 II (Roche). Method used in FIG. 10.
SARV-CoV-2 antiviral activity by of VSP034 and VSP035 (n3; number of repeat of the assay at each condition). The results are shown in for DMSO (1), 7.5 μM VSP034 (2) and 7.5 μM VSP035 (3), y axis logarithmic scale. […] (FIG. 9)
(Real-time PCR tracks product formation cycle by cycle.)

By % Inhibition is commonly meant the relative decrease from the control value, in per cent. A word on the inhibition: it is how much of the control response was suppressed. For orientation: AUC(0-inf) means the area under the concentration-time curve extrapolated to infinity. A high value points to more exposure. The term CL/F denotes the apparent clearance, not corrected for the fraction that reaches the circulation. A word on the Cmax: it is the highest concentration seen after dosing. The MRT inf is the average time that molecules of a dose stay in the body. By Tmax is commonly meant the time at which the peak concentration occurs. The term Vd/F denotes the volume of distribution divided by bioavailability. As usually defined, the half-life is the time needed for the level to fall by half in the phase considered. Low readings indicate rapid decline, high ones slow decline. The EC50 is the concentration that produces a half-maximal response.

Plk3, sequence (Q9H4B4 whole entry, species assumed): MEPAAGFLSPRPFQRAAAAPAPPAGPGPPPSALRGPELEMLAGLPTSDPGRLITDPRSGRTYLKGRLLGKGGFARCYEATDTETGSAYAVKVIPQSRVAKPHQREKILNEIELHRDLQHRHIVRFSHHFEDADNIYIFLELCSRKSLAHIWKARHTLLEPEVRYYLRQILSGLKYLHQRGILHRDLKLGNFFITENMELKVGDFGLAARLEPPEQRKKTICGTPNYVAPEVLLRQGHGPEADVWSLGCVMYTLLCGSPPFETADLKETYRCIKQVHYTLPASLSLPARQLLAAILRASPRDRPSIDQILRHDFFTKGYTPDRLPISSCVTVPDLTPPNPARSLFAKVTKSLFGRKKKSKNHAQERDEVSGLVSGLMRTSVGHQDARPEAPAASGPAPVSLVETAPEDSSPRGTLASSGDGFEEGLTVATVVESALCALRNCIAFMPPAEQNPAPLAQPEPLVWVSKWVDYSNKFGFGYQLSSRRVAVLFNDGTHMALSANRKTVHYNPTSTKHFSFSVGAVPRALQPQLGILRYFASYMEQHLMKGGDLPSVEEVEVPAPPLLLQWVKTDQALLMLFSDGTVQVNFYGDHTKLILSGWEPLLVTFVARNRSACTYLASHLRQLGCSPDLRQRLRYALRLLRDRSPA

For the compound `Nc1ncnc2n[nH]c(Nc3ccc(F)cc3)c12` [CGP57380, reference compound], the “% Inhibition” value in data set [1] is 17.71%. Further, the “inhibitory activity against p38, JNK1, ERK1/2, PKC, or Src-like kinases” value in data set [2] is “μM, but has no inhibitory activity against”. In addition, the “Phosphorylation of 4E-BP1 on Ser65 and the p70S6 kinase on Thr389” value in data set [3] was “inhibited or strongly reduced”.
With `COc1cc(OC)c(/C=C/S(=O)(=O)Cc2ccc(OC)c(NCC(=O)O)c2)c(OC)c1` [ON-01910.Na, reference compound], testing at 1.25 µM in data set [1] gave an inhibition of 51.4%. Besides, the “activity to Plk3” value at Plk3 was “against Plk2 and no activity to Plk3”.
In data set [4] (Mean), `CN1CCC(CN2C(=O)c3ccccc3[C@@H](C(=O)Nc3cccc(N4CCN(C)CC4)c3)[C@@H]2c2ccc(C(F)(F)F)cc2)CC1` [VSP034, (3R,4R)-N-[3-(4-methylpiperazin-1-yl)phenyl]-2-[(1-methylpiperidin-4-yl)methyl]-1-oxo-3-[4-(trifluoromethyl)phenyl]-1,2,3,4-tetrahydroisoquinoline-4-carboxamide] had an AUC(0-inf) of 529 ng·h/mL, a CL/F of 3.42 mL/min/kg, a Cmax of 89 ng/mL and an MRT inf of 6.72 h. Further, in data set [4] (Mean), the time of peak concentration (Tmax) came out at 1.17 h and the Vd/F was determined as 1.29 L/kg. In data set [4] (Median), this compound had an area under the curve AUC(0-inf) of 613 ng·h/mL, a CL/F of 2.72 mL/min/kg, a peak concentration (Cmax) of 87.9 ng/mL and a mean residence time MRT inf of 6.77 h. Further, in data set [4] (Median), the time to peak (Tmax) is 1 h and the Vd/F stood at 0.994 L/kg. The same compound had a half-life in data set [4] (t1/2, Mean) of 4.33 h. The same compound showed a half-life in data set [4] (t1/2, Median) of 4.22 h. Moreover, the “condition of the rats after administration of the liposomal formulation” value in data set [4] (single 100 mg/kg oral gavage, observed 24 hours) is reported as “did not show any sign of suffering or abnormal behavior”. In addition, the EC50 in data set [5] was determined as 3590 nM. Further, the “reduction of virus load as determined by the PCR assay” value in data set [6] is on record as “one order of magnitude”. Also, in data set [1], the inhibition at 1.25 µM was found to be 45.2%.
